≈ marks a conversion by molar mass, not a printed value.
The compounds below were run on Col2 (assay: Cytotoxicity against human Col2 cells).
Type: functional, cell-based
Work on `COc1cc(/C=C/c2ccc(OC)cc2OC)cc(OC)c1` yielded an IC50 of 0.8 mg/L (≈ 2.66 µM).

Species on record: Homo sapiens
Test: Selectivity ratio of IC50 for human recombinant CYP1A1 to IC50 for human recombinant CYP1B1
In the case of `COc1cc(OC)c(/C=C/c2ccc(OC)c(OC)c2)c(OC)c1`, the Ratio IC50 is reported as 0.9.
With `COc1ccc(/C=C/c2ccccc2)cc1OC` the Ratio IC50 was 1.5.
In the case of `COc1cc(OC)c(OC)cc1/C=C/c1ccc(OC)c(OC)c1`, the Ratio IC50 is reported as 0.4.
With `COc1ccc(/C=C/c2c(OC)cccc2OC)cc1OC` the Ratio IC50 was 0.74.
`COc1ccc(/C=C/c2ccc(OC)c(OC)c2)c(OC)c1` was tested, and the Ratio IC50 was 2.4.
`COc1ccc(OC)c(/C=C/c2ccc(OC)c(OC)c2)c1` gave a Ratio IC50 of 0.8.
Compound `COc1ccccc1/C=C/c1ccc(OC)c(OC)c1` has a Ratio IC50 of 90.
Work on `COc1ccc(/C=C/c2cccc(OC)c2OC)cc1OC` yielded a Ratio IC50 of 1.2.
Compound `COc1ccc(/C=C/c2ccc(OC)c(OC)c2OC)cc1OC` has a Ratio IC50 of 1.2.

Species on record: Homo sapiens
Test: Selectivity ratio of IC50 for human recombinant CYP1A2 to IC50 for human recombinant CYP1B1
In the case of `COc1cc(OC)c(/C=C/c2ccc(OC)c(OC)c2)c(OC)c1`, the Ratio IC50 is reported as > 333.
For `COc1ccc(/C=C/c2ccccc2)cc1OC`, the Ratio IC50 was 20.1.
In the case of `COc1cc(OC)c(OC)cc1/C=C/c1ccc(OC)c(OC)c1`, the Ratio IC50 is reported as > 22.5.
`COc1ccc(/C=C/c2c(OC)cccc2OC)cc1OC` was tested, and the Ratio IC50 was 7.5.
`COc1ccc(/C=C/c2ccc(OC)c(OC)c2)c(OC)c1` was tested, and the Ratio IC50 was > 480.
With `COc1ccc(OC)c(/C=C/c2ccc(OC)c(OC)c2)c1` the Ratio IC50 was > 160.
Work on `COc1ccccc1/C=C/c1ccc(OC)c(OC)c1` yielded a Ratio IC50 of 830.
Compound `COc1ccc(/C=C/c2cccc(OC)c2OC)cc1OC` has a Ratio IC50 of 43.3.
With `COc1ccc(/C=C/c2ccc(OC)c(OC)c2OC)cc1OC` the Ratio IC50 was > 24.

What follows are compounds tested against T1, Cytochrome P450 1B1 (Homo sapiens, UniProt Q16678) (assay: Inhibition of human recombinant CYP1B1 after 15 mins by 7-ethoxyresorufin-O-deethylation-based spectrofluorimetry).
T1 sequence (Q16678 whole entry): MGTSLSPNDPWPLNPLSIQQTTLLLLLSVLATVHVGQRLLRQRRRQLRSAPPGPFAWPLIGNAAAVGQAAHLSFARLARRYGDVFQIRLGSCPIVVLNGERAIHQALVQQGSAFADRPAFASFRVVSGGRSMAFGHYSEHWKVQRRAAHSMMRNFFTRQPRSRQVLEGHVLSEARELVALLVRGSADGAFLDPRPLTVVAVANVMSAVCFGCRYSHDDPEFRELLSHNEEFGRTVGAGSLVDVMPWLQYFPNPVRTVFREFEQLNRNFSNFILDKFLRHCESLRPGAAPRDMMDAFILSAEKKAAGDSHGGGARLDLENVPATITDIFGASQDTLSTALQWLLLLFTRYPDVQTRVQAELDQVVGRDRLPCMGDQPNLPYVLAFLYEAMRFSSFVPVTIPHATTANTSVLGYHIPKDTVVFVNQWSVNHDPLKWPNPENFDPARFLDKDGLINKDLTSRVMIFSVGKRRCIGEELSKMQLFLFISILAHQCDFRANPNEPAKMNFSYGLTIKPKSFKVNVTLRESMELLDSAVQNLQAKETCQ
Compound `COc1cc(OC)c(/C=C/c2ccc(OC)c(OC)c2)c(OC)c1` has an IC50 of 0.3 µM.
Work on `COc1ccc(/C=C/c2ccccc2)cc1OC` yielded an IC50 of 0.3 µM.
For `COc1ccc(/C=C/c2cc(O)cc(O)c2)cc1` [RESVERATROL 4'-METHYL ETHER], the IC50 was 0.8 µM.
Work on `COc1cc(OC)c(OC)cc1/C=C/c1ccc(OC)c(OC)c1` yielded an IC50 of 4.44 µM.
For `COc1ccc(/C=C/c2c(OC)cccc2OC)cc1OC`, the IC50 was 0.31 µM.
`COc1ccc(/C=C/c2ccc(OC)c(OC)c2)c(OC)c1` showed an IC50 of 0.21 µM.
In the case of `COc1ccc(OC)c(/C=C/c2ccc(OC)c(OC)c2)c1`, the IC50 is reported as 0.62 µM.
Work on `COc1ccccc1/C=C/c1ccc(OC)c(OC)c1` yielded an IC50 of 0.004 µM.
Compound `COc1ccc(/C=C/c2cccc(OC)c2OC)cc1OC` has an IC50 of 0.37 µM.
With `COc1cc(/C=C/c2ccc(O)cc2)cc(OC)c1` [PTEROSTILBENE] the IC50 was 1.4 µM.
In the case of `COc1cc(O)cc(/C=C/c2ccc(O)cc2)c1`, the IC50 is reported as 2.1 µM.
With `COc1ccc(/C=C/c2ccc(OC)c(OC)c2OC)cc1OC` the IC50 was 4.17 µM.

The compounds below were run against T2, Cytochrome P450 1A2 (Homo sapiens, UniProt P05177) (assay: Inhibition of human recombinant CYP1A2 after 15 mins by 7-ethoxyresorufin-O-deethylation-based spectrofluorimetry).
T2 sequence (P05177 whole entry): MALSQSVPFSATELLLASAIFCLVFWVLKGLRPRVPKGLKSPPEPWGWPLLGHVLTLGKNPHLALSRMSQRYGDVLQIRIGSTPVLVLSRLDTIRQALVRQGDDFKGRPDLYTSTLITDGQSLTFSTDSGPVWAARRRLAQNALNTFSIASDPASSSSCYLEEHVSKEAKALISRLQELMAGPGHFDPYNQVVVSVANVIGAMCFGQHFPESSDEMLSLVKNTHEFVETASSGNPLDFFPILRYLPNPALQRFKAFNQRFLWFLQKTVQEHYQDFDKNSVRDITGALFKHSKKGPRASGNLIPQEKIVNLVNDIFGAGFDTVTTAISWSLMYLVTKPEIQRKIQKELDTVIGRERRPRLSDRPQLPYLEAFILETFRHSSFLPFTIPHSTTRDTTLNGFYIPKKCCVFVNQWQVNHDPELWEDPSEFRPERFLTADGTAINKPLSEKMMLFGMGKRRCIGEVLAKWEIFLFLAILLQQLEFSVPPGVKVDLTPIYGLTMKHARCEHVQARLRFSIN
In the case of `COc1cc(OC)c(/C=C/c2ccc(OC)c(OC)c2)c(OC)c1`, the IC50 is reported as > 100 µM.
`COc1ccc(/C=C/c2ccccc2)cc1OC` gave an IC50 of 6.04 µM.
For `COc1cc(OC)c(OC)cc1/C=C/c1ccc(OC)c(OC)c1`, the IC50 was > 100 µM.
`COc1ccc(/C=C/c2c(OC)cccc2OC)cc1OC` gave an IC50 of 2.31 µM.
In the case of `COc1ccc(/C=C/c2ccc(OC)c(OC)c2)c(OC)c1`, the IC50 is reported as > 100 µM.
In the case of `COc1ccc(OC)c(/C=C/c2ccc(OC)c(OC)c2)c1`, the IC50 is reported as > 100 µM.
`COc1ccccc1/C=C/c1ccc(OC)c(OC)c1` showed an IC50 of 3.32 µM.
`COc1ccc(/C=C/c2cccc(OC)c2OC)cc1OC` was tested, and the IC50 was 16 µM.
In the case of `COc1ccc(/C=C/c2ccc(OC)c(OC)c2OC)cc1OC`, the IC50 is reported as > 100 µM.

What follows are compounds tested against T3, Cytochrome P450 1A1 (Homo sapiens, UniProt P04798) (assay: Inhibition of human recombinant CYP1A1 after 15 mins by 7-ethoxyresorufin-O-deethylation-based spectrofluorimetry).
T3 sequence (P04798 whole entry): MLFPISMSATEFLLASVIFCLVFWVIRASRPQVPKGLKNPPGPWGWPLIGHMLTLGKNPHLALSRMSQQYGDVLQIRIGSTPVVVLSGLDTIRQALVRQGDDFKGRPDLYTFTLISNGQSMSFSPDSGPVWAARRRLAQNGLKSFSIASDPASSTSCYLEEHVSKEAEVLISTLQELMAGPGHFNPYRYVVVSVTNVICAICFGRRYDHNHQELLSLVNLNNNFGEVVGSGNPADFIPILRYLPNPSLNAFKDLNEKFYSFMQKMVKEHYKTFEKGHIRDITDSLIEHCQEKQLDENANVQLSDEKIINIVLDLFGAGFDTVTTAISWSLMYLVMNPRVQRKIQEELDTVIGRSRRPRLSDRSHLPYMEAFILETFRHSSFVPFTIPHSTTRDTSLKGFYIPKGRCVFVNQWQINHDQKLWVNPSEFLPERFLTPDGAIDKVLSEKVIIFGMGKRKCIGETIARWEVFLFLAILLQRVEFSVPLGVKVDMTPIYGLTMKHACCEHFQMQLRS
`COc1cc(OC)c(/C=C/c2ccc(OC)c(OC)c2)c(OC)c1` showed an IC50 of 0.27 µM.
Compound `COc1ccc(/C=C/c2ccccc2)cc1OC` has an IC50 of 0.44 µM.
`COc1cc(OC)c(OC)cc1/C=C/c1ccc(OC)c(OC)c1` was tested, and the IC50 was 1.78 µM.
`COc1ccc(/C=C/c2c(OC)cccc2OC)cc1OC` was tested, and the IC50 was 0.23 µM.
`COc1ccc(/C=C/c2ccc(OC)c(OC)c2)c(OC)c1` gave an IC50 of 0.51 µM.
For `COc1ccc(OC)c(/C=C/c2ccc(OC)c(OC)c2)c1`, the IC50 was 0.5 µM.
`COc1ccccc1/C=C/c1ccc(OC)c(OC)c1` showed an IC50 of 0.36 µM.
With `COc1ccc(/C=C/c2cccc(OC)c2OC)cc1OC` the IC50 was 0.45 µM.
For `COc1ccc(/C=C/c2ccc(OC)c(OC)c2OC)cc1OC`, the IC50 was 5.18 µM.
